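The compound was tested at five concentrations on cells cultured in 96-well plates, with a 48-hour exposure period. GI50 = concentration required for 50% inhibition of growth.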 Calls of active or inactive are those of the source. No stated cut-off is given here; in the data, active = GI50 up to about 1.1 µM and inactive = higher.

These results are taken from ChEMBL document CHEMBL1201862, “PubChem BioAssay data set” (2004).

Some test systems named below: LOX IMVI; M19-MEL; UO-31; A549; UACC-257; NCI/ADR-RES; EKVX; SF-295; MOLT-4; UACC-62; RXF 393; SNB-19; DLD-1; SK-MEL-28; SF-539; SNB-78.
What all share (assay): growth of human tumour cells (NCI), 48 h

As to `Nc1cc(O)c2cc(/N=N/c3ccc(/N=N/c4ccc(/N=N/c5ccc6cc(S(=O)(=O)O)cc(S(=O)(=O)O)c6c5)c5ccccc45)c4cc(S(=O)(=O)O)ccc34)c(S(=O)(=O)O)cc2c1`, the GI50 is > 100 µM (inactive) with LOX IMVI; > 100 µM (inactive) with M19-MEL; 85.9 µM (inactive) with UO-31; 96.8 µM (inactive) in the assay on A549; > 100 µM (inactive) in the assay on UACC-257; > 100 µM (inactive) in the assay with NCI/ADR-RES. Also, the GI50 in the assay on EKVX was > 100 µM (inactive); in the assay on SF-295, > 53.2 µM (inactive); with MOLT-4 it was 64.7 µM (inactive); in the assay with UACC-62, > 100 µM (inactive); in the assay on RXF 393 it was > 100 µM (inactive); in the assay with SNB-19 it was > 100 µM (inactive). Moreover, the GI50 in the assay on DLD-1, in the assay on SK-MEL-28, in the assay on SF-539 and in the assay with SNB-78 was > 100 µM (inactive) each time.

As for `CN(C)CCNC(=O)c1cccc2cc3cc(O)ccc3nc12`, the GI50 in the assay with LOX IMVI is 0.857 µM (active); in the assay on M19-MEL, 1.2 µM (inactive); in the assay with UO-31 it was 1.12 µM (active); in the assay on A549, 0.811 µM (active); with UACC-257, 1.26 µM (inactive); in the assay on NCI/ADR-RES it was 1.48 µM (inactive). Besides, the GI50 in the assay with EKVX was 1.95 µM (inactive); in the assay with SF-295, 1 µM (active); in the assay with MOLT-4, 0.147 µM (active); with UACC-62, 1.33 µM (inactive); in the assay with RXF 393, 1.11 µM (active); with SNB-19, 0.869 µM (active). Also, the GI50 with DLD-1 was 1.42 µM (inactive); in the assay with SK-MEL-28 it was 1.92 µM (inactive); in the assay with SF-539, 1.11 µM (active); in the assay with SNB-78 it was 2.47 µM (inactive).
